# Assay results reported in EP0462621A2, “Use of particular compounds for manufacture of pharmaceutical formulations for treatment against various parasites, mycoplasmas, other indications and other infections” (Prendergast, Patrick Thomas, priority 1990, dated 1991).
# Where two headings read alike, the source gives them in different places.
# Legend:
# L donovani = assay: Amastigotes (AM) in mouse or human macrophages (mos), in-vitro; format: cell-based; details: Ld., Amastigote
# Description: (§1) Amastigotes of Leishmania can be cultivated in a wide range of mammalian cells, some of which may be used in in-vitro screens. These include (1) a Sticker dog sarcoma (fibroblast) cell line, (2) transformed rodent macrophage cell lines, (3) primary isolated mouse peritoneal macrophages (MP mo), and (4) human monocyte-derived macrophages (HM mo). The methods are similar for all models. Amastigote or promastigote infected cells are maintained in a medium containing the drug for 4-7 days, at 37 C for L. donovani and 33-35 C for L. major and L. mexicana. Drug activity is then assessed by counting (I) the number of infected host cells and/or (II) the number of amastigotes/100 host cells.
# (§2) In-vitro and in-vivo models were used to test activities of a selection of many compounds. Those activities are summarized in Tables 1-3, showing variation between systems and species. Activities measured in the MP mo and HM mo models have shown the best correlation with results obtained in hamster and mouse models.
# L major/L mexicana = assay: as above; format: cell-based; details: Lm., Amastigote
# Description: as §1, §2
# HIV-I = assay: Experiment la(a): macrophage cells, HIV-I, p24 antigen capture radio-immunoassay; format: cell-based; details: for TITER: control titer 100000; for wells positive for HIV-I p24, LOG VIRUS DILUTION -1 / wells positive for HIV-I p24, LOG VIRUS DILUTION -2 / wells positive for HIV-I p24, LOG VIRUS DILUTION -3 / wells positive for HIV-I p24, LOG VIRUS DILUTION -4 / wells positive for HIV-I p24, LOG VIRUS DILUTION -5 / wells positive for HIV-I p24, LOG VIRUS DILUTION -6: duplicate runs
# Method: (§3) Fresh macrophage cultures were obtained by incubation of mononuclear cells obtained from a leukopak directly in the wells of a microtiter plate having 6 wells per row. After removal of non-adherent cells, each row of the adherent macrophages was infected with 10-fold serial dilutions of HIV-I, with the use of polybrene to enhance uptake of the virus. After one to two hours, the virus inoculum was removed and replaced with fresh normal growth medium. The fresh medium for each row contained a particular concentration of AZT, dideoxy cytidine (ddC), or compound la, as indicated by the left-hand column of Table la(a). The first row of wells acted as a control, and to it was added fresh medium containing none of the three drugs. Medium levels were maintained for two to four weeks to allow replication of the virus to take place, with at least one complete fluid change to remove residual virus inoculum. The contents of each well were then tested for the level of HIV p24 antigen present using a commercially available antigen capture kit employing a radio-immunoassay which can detect as little as 10'^9gm of p24 present in a sample. The above procedure was done in duplicate runs.
# The results were interpreted as follows: 2/2, for example, means that both the corresponding wells of both runs were positive for HIV-I p24, while 0/2 means that neither well was positive. The titers are given in the next to last column; where 1/2 wells was positive, an intermediate value was given to the titer that is half way between the two dilutions when calculated on a logarithmic scale. 3 µM IPA was positive in both wells at a dilution of 1/10,000 and in neither well at 1/100,000. Thus, one half log interval between 10^4 and 10^5 is 10^4.5, or 30,000.
# HIV-1 = assay: Experiment la(b): H9 cells, HIV-1, antibody assay; format: cell-based; details: Human immunodeficiency virus 1
# Method: as §3
# A procedure similar to that followed in Experiment la(a) was followed using infected H9 cells, H9 cells being a permanent human T-cell line.
# A procedure similar to that followed in Experiment la(a) was followed using infected H9 cells, being a permanent human T-cell line.
# [1] = Case study: AIDS patient with hairy leukoplakia, IPA oral fluid dose or mouth wash; format: in vivo, human
# Description: When the indication reappeared, following a period of time (several days), the administration of the compound gave further relief.
# cytomegilovirus = assay: M413 cells, CMV; format: cell-based, cytomegalovirus (CMV)
# Method: Confluent monolayers of M413 cells (a type of dipliod human fibroblast cells) in 48 well microtiter plates were used. They were grown in Dulbecco's MEM (minimum essential medium) supplemented with 10% fetal bovine serum and 50 ug/ml gentamicin.
# Stock cytomegalovirus (CMV) was diluted in a series of 10-fold dilutions in the above medium, and […] amounts were added to the wells of the microtiter plates and allowed to absorb virus for 90 minutes at 37 °C.
# Unabsorbed virus was removed by aspiration and 0.5 ml of medium containing dilutions of drug was added to duplicate wells at each concentration of virus.
# After incubating for 5 days, fresh medium was added to each well, no additional drug being included, and the plates were scored for cytopathic effects the next day. The viruses produce characteristic enlarged rounded cells in a cellular background that is completely devoid of such cells.
# The data were expressed as the reciprocal of the greatest dilution producing any of the characteristic rounded cells (the "titer"), and the percent inhibition was calculated by comparing the experimental titer with the control titer, with intermediate results interpreted as those of Experiment la(a).
# The procedure described for Experiment la(j) was followed with cytomegalovirus (CMV) substituted for MAB to HSV-1.
compound,measurement,setting,value
"CC(C)=CCNc1ncnc2c1ncn2[C@@H]1O[C@H](CO)[C@@H](O)[C@H]1O [IPA, N^6-(Δ^2-isopentenyl) adenosine]","Activity, AM in mouse or human mos",L donovani,+ +
same,"Activity, AM in mouse or human mos",L major/L mexicana,+ +
same,activity at 3 µM,"HIV-I; Human immunodeficiency virus 1, Macrophage, drug 3 μM, titer relative to control, read-out: PERCENT OF CONTROL",30%
same,activity at 10 µM,"HIV-I; Human immunodeficiency virus 1, Macrophage, drug 10 μM, titer relative to control, read-out: PERCENT OF CONTROL",10%
same,activity at 30 µM,"HIV-I; Human immunodeficiency virus 1, Macrophage, drug 30 μM, titer relative to control, read-out: PERCENT OF CONTROL",1%
same,activity at 100 µM,"HIV-I; Human immunodeficiency virus 1, Macrophage, drug 100 μM, titer relative to control, read-out: PERCENT OF CONTROL",0.3%
same,activity at 300 µM,"HIV-I; Human immunodeficiency virus 1, Macrophage, drug 300 μM, titer relative to control, read-out: PERCENT OF CONTROL",0%
same,activity at 1000 µM,"HIV-I; Human immunodeficiency virus 1, Macrophage, drug 1000 μM, titer relative to control, read-out: PERCENT OF CONTROL",0%
same,TITER,HIV-I; drug 3 μM,30000
same,"wells positive for HIV-I p24, LOG VIRUS DILUTION -1",HIV-I; drug 3 μM,2/2
same,"wells positive for HIV-I p24, LOG VIRUS DILUTION -2",HIV-I; drug 3 μM,2/2
same,"wells positive for HIV-I p24, LOG VIRUS DILUTION -3",HIV-I; drug 3 μM,2/2
same,"wells positive for HIV-I p24, LOG VIRUS DILUTION -4",HIV-I; drug 3 μM,2/2
same,"wells positive for HIV-I p24, LOG VIRUS DILUTION -5",HIV-I; drug 3 μM,0/2
same,"wells positive for HIV-I p24, LOG VIRUS DILUTION -6",HIV-I; drug 3 μM,0/2
same,TITER,HIV-I; drug 10 μM,10000
same,"wells positive for HIV-I p24, LOG VIRUS DILUTION -1",HIV-I; drug 10 μM,2/2
same,"wells positive for HIV-I p24, LOG VIRUS DILUTION -2",HIV-I; drug 10 μM,2/2
same,"wells positive for HIV-I p24, LOG VIRUS DILUTION -3",HIV-I; drug 10 μM,2/2
same,"wells positive for HIV-I p24, LOG VIRUS DILUTION -4",HIV-I; drug 10 μM,1/2
same,"wells positive for HIV-I p24, LOG VIRUS DILUTION -5",HIV-I; drug 10 μM,0/2
same,"wells positive for HIV-I p24, LOG VIRUS DILUTION -6",HIV-I; drug 10 μM,0/2
same,TITER,HIV-I; drug 30 μM,1000
same,"wells positive for HIV-I p24, LOG VIRUS DILUTION -1",HIV-I; drug 30 μM,2/2
same,"wells positive for HIV-I p24, LOG VIRUS DILUTION -2",HIV-I; drug 30 μM,2/2
same,"wells positive for HIV-I p24, LOG VIRUS DILUTION -3",HIV-I; drug 30 μM,1/2
same,"wells positive for HIV-I p24, LOG VIRUS DILUTION -4",HIV-I; drug 30 μM,0/2
same,"wells positive for HIV-I p24, LOG VIRUS DILUTION -5",HIV-I; drug 30 μM,0/2
same,"wells positive for HIV-I p24, LOG VIRUS DILUTION -6",HIV-I; drug 30 μM,0/2
same,TITER,HIV-I; drug 100 μM,300
same,"wells positive for HIV-I p24, LOG VIRUS DILUTION -1",HIV-I; drug 100 μM,2/2
same,"wells positive for HIV-I p24, LOG VIRUS DILUTION -2",HIV-I; drug 100 μM,2/2
same,"wells positive for HIV-I p24, LOG VIRUS DILUTION -3",HIV-I; drug 100 μM,0/2
same,"wells positive for HIV-I p24, LOG VIRUS DILUTION -4",HIV-I; drug 100 μM,0/2
same,"wells positive for HIV-I p24, LOG VIRUS DILUTION -5",HIV-I; drug 100 μM,0/2
same,"wells positive for HIV-I p24, LOG VIRUS DILUTION -6",HIV-I; drug 100 μM,0/2
same,TITER,HIV-I; drug 300 μM,10
same,"wells positive for HIV-I p24, LOG VIRUS DILUTION -1",HIV-I; drug 300 μM,0/2
same,"wells positive for HIV-I p24, LOG VIRUS DILUTION -2",HIV-I; drug 300 μM,0/2
same,"wells positive for HIV-I p24, LOG VIRUS DILUTION -3",HIV-I; drug 300 μM,0/2
same,"wells positive for HIV-I p24, LOG VIRUS DILUTION -4",HIV-I; drug 300 μM,0/2
same,"wells positive for HIV-I p24, LOG VIRUS DILUTION -5",HIV-I; drug 300 μM,0/2
same,"wells positive for HIV-I p24, LOG VIRUS DILUTION -6",HIV-I; drug 300 μM,0/2
same,TITER,HIV-I; drug 1000 μM,10
same,"wells positive for HIV-I p24, LOG VIRUS DILUTION -1",HIV-I; drug 1000 μM,0/2
same,"wells positive for HIV-I p24, LOG VIRUS DILUTION -2",HIV-I; drug 1000 μM,0/2
same,"wells positive for HIV-I p24, LOG VIRUS DILUTION -3",HIV-I; drug 1000 μM,0/2
same,"wells positive for HIV-I p24, LOG VIRUS DILUTION -4",HIV-I; drug 1000 μM,0/2
same,"wells positive for HIV-I p24, LOG VIRUS DILUTION -5",HIV-I; drug 1000 μM,0/2
same,"wells positive for HIV-I p24, LOG VIRUS DILUTION -6",HIV-I; drug 1000 μM,0/2
same,IC50,"HIV-1; H9, HIV-1, as read from Figure 15, read-out: IC50",2 µM
same,IC90,"HIV-1; H9, HIV-1, as read from Figure 15, read-out: IC90",3 µM
same,IC50,"HIV-1; H9 Cells, from Figures 16 and 17, read-out: IC50 - The concentration of IPA which inhibits the replication of HIV-1 by 50%",6 µM
same,IC90,"HIV-1; H9 Cells, from Figures 16 and 17, read-out: IC90 - The concentration of IPA which inhibits the replication of HIV-1 by 90%",10 µM
same,relief of hairy leukoplakia,[1],complete relief
same,time to relief of the indication,[1],within seven days
same,levels of cytomegilovirus in cells in-vitro,cytomegilovirus,reduces
